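Each compound was tested at five concentrations against cells in 96-well plates for 48 hours. At the GI50, growth is halved.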 Activity calls are given as the source filed them. Rule as the data show it: active = GI50 up to about 1.1 µM and inactive = higher.
Tests used:
Experiment in all cases: NCI-60 cell line screen, 48 h
SNB-75 = system: SNB-75
MCF7 = system: MCF7
HCT-15 = system: HCT-15
OVCAR-5 = system: OVCAR-5
HCT-116 = system: HCT-116
NCI/ADR-RES = system: NCI/ADR-RES
M14 = system: M14
HL-60 = system: HL-60
K562 = system: K562
RPMI-8226 = system: RPMI-8226
SK-MEL-2 = system: SK-MEL-2
UACC-257 = system: UACC-257
MDA-MB-231 = system: MDA-MB-231
A549 = system: A549
Malme-3M = system: Malme-3M
MDA-MB-435 = system: MDA-MB-435
U-251 = system: U-251
PC-3 = system: PC-3
LOX IMVI = system: LOX IMVI
UO-31 = system: UO-31
SN12C = system: SN12C
KM12 = system: KM12
OVCAR-3 = system: OVCAR-3
SNB-19 = system: SNB-19
HT-29 = system: HT-29
ACHN = system: ACHN
SF-539 = system: SF-539
BT-549 = system: BT-549
COLO 205 = system: COLO 205
NCI-H460 = system: NCI-H460
A498 = system: A498
SK-MEL-28 = system: SK-MEL-28
SF-295 = system: SF-295
Hs-578T = system: Hs-578T
UACC-62 = system: UACC-62
SF-268 = system: SF-268
786-0 = system: 786-0
OVCAR-4 = system: OVCAR-4
IGROV-1 = system: IGROV-1
SR = system: SR
MDA-N = system: MDA-N
SK-MEL-5 = system: SK-MEL-5
SW-620 = system: SW-620
TK-10 = system: TK-10
OVCAR-8 = system: OVCAR-8
CAKI-1 = system: CAKI-1
MOLT-4 = system: MOLT-4
SK-OV-3 = system: SK-OV-3
HOP-62 = system: HOP-62
NCI-H23 = system: NCI-H23
CCRF-CEM = system: CCRF-CEM
HCC 2998 = system: HCC 2998
NCI-H522 = system: NCI-H522
RXF 393 = system: RXF 393
DU-145 = system: DU-145
NCI-H226 = system: NCI-H226
HOP-92 = system: HOP-92
EKVX = system: EKVX

## CS(=O)(=O)OCCN1CCC2(CC1)SSC1(CCN(CCOS(C)(=O)=O)CC1)S2
SNB-75
  GI50: 99.1 µM (inactive)
MCF7
  GI50: 17.1 µM (inactive)
HCT-15
  GI50: > 100 µM
OVCAR-5
  GI50: 24 µM (inactive)
HCT-116
  GI50: 53.2 µM (inactive)
NCI/ADR-RES
  GI50: > 100 µM (inactive)
M14
  GI50: > 100 µM (inactive)
HL-60
  GI50: 24.3 µM (inactive)
K562
  GI50: 64.4 µM (inactive)
RPMI-8226
  GI50: 8.87 µM (inactive)
SK-MEL-2
  GI50: > 100 µM (inactive)
UACC-257
  GI50: > 100 µM (inactive)
MDA-MB-231
  GI50: > 100 µM (inactive)
A549
  GI50: > 100 µM (inactive)
Malme-3M
  GI50: 22.8 µM (inactive)
MDA-MB-435
  GI50: > 100 µM (inactive)
U-251
  GI50: 72.6 µM (inactive)
PC-3
  GI50: 44.7 µM (inactive)
LOX IMVI
  GI50: 19.8 µM (inactive)
UO-31
  GI50: 45 µM (inactive)
SN12C
  GI50: 43 µM (inactive)
KM12
  GI50: > 100 µM (inactive)
OVCAR-3
  GI50: 29.2 µM (inactive)
SNB-19
  GI50: 69.3 µM (inactive)
HT-29
  GI50: 50.5 µM (inactive)
ACHN
  GI50: 33.5 µM (inactive)
SF-539
  GI50: 27.7 µM (inactive)
BT-549
  GI50: 45.5 µM (inactive)
COLO 205
  GI50: 28.7 µM (inactive)
NCI-H460
  GI50: 34.8 µM (inactive)
A498
  GI50: 0.352 µM (active)
SK-MEL-28
  GI50: > 100 µM (inactive)
SF-295
  GI50: 45.4 µM (inactive)
Hs-578T
  GI50: 82.6 µM (inactive)
UACC-62
  GI50: 30.1 µM (inactive)
SF-268
  GI50: 22.3 µM (inactive)
786-0
  GI50: 56.9 µM (inactive)
OVCAR-4
  GI50: 62.1 µM (inactive)
IGROV-1
  GI50: 50.8 µM (inactive)
SR
  GI50: 14.1 µM (inactive)
MDA-N
  GI50: 75.5 µM (inactive)
SK-MEL-5
  GI50: 16.1 µM (inactive)
SW-620
  GI50: 42.3 µM (inactive)
TK-10
  GI50: 15.7 µM (inactive)
OVCAR-8
  GI50: > 100 µM (inactive)
CAKI-1
  GI50: 21.8 µM (inactive)
MOLT-4
  GI50: 31.8 µM (inactive)
SK-OV-3
  GI50: 64.4 µM (inactive)
HOP-62
  GI50: > 100 µM (inactive)
NCI-H23
  GI50: 60 µM (inactive)

## CCCCn1c(O)nc2c(N)ncnc21
SNB-75
  GI50: > 100 µM (inactive)
MCF7
  GI50: > 100 µM (inactive)
HCT-15
  GI50: > 100 µM
OVCAR-5
  GI50: > 100 µM (inactive)
HCT-116
  GI50: > 100 µM (inactive)
NCI/ADR-RES
  GI50: > 100 µM (inactive)
M14
  GI50: > 100 µM (inactive)
HL-60
  GI50: > 100 µM (inactive)
K562
  GI50: > 100 µM (inactive)
SK-MEL-2
  GI50: > 100 µM (inactive)
UACC-257
  GI50: > 100 µM (inactive)
CCRF-CEM
  GI50: > 100 µM (inactive)
MDA-MB-231
  GI50: > 100 µM (inactive)
A549
  GI50: > 100 µM (inactive)
Malme-3M
  GI50: > 100 µM (inactive)
MDA-MB-435
  GI50: > 100 µM (inactive)
U-251
  GI50: > 100 µM (inactive)
PC-3
  GI50: > 100 µM (inactive)
LOX IMVI
  GI50: > 100 µM (inactive)
UO-31
  GI50: > 100 µM (inactive)
SN12C
  GI50: > 100 µM (inactive)
HCC 2998
  GI50: > 100 µM (inactive)
OVCAR-3
  GI50: > 100 µM (inactive)
SNB-19
  GI50: > 100 µM (inactive)
HT-29
  GI50: > 100 µM (inactive)
ACHN
  GI50: > 100 µM (inactive)
SF-539
  GI50: > 100 µM (inactive)
NCI-H522
  GI50: > 100 µM (inactive)
BT-549
  GI50: > 100 µM (inactive)
COLO 205
  GI50: > 100 µM (inactive)
NCI-H460
  GI50: > 100 µM (inactive)
RXF 393
  GI50: > 100 µM (inactive)
A498
  GI50: > 100 µM (inactive)
SK-MEL-28
  GI50: > 100 µM (inactive)
SF-295
  GI50: > 100 µM (inactive)
Hs-578T
  GI50: > 100 µM (inactive)
DU-145
  GI50: > 100 µM (inactive)
UACC-62
  GI50: > 100 µM (inactive)
NCI-H226
  GI50: > 100 µM (inactive)
SF-268
  GI50: > 100 µM (inactive)
786-0
  GI50: > 100 µM (inactive)
OVCAR-4
  GI50: > 100 µM (inactive)
IGROV-1
  GI50: > 100 µM (inactive)
MDA-N
  GI50: > 100 µM (inactive)
HOP-92
  GI50: > 100 µM (inactive)
SK-MEL-5
  GI50: > 100 µM (inactive)
SW-620
  GI50: > 100 µM (inactive)
TK-10
  GI50: > 100 µM (inactive)
OVCAR-8
  GI50: > 100 µM (inactive)
EKVX
  GI50: 92.9 µM (inactive)
SK-OV-3
  GI50: > 100 µM (inactive)
HOP-62
  GI50: > 100 µM (inactive)
NCI-H23
  GI50: > 100 µM (inactive)

Reference: ChEMBL document CHEMBL1201862, “PubChem BioAssay data set” (2004)
